Here are results for 29 sequences from the supplement of paper PMC11208160.
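Also: IS621 bridge recombinase in Escherichia coli cells against a fixed T5 target plasmid.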

The series can be described thus: recombinant UMI read abundance after kanamycin selection (control-corrected) (log10(CPM+1)); higher = more efficient recombination; extreme values may be limits of the assay; sequences stand for … in AGTGCAGAGAAAATCGGCCAGTTTTCTCTGCCTGCAGTCCGCATGCCGTGGGACCCCTTGGGTTCTAACCTGTTGCCTAGATTTATGCAGCGGACTGCCTTTCTCCCAAAGTGATAAACCGG…AGGTTGGTTTCACT; site = the 11-nt donor. In a few lines:
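Sequenced counts of recombinant UMIs were turned into CPM, averaged across replicates and scaled with control-derived factors. The reported figure is log10(CPM+1). Those UMIs, each 12 nt long, tagged donor and donor-binding-loop pairs on a plasmid with a promoterless kanamycin gene, screened as a pool in Escherichia coli with IPTG (0.07 mM) plus kanamycin or without selection.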
For the sequence “TTAGCTGCATGGACCGGTTTTCCCGGTAATCCGTATTTGTG (site TTAGTTGCTCA)”, the “recombinant UMI read abundance (log10)” value was found to be 0.00547.

In the case of “TTAGCTGCATGGACCGGTTTTCCCGGTAATCCGTATTTGTG (site TTATCTGCTCA)”, the “recombinant UMI read abundance (log10)” value was found to be 0.0225.

Take “TTAGCTGCATGGACCGGTTTTCCCGGTAATCCGTATTTGTG (site TTCGCTGCTCA)”: the “recombinant UMI read abundance (log10)” value is 0.00425.

Regarding “TTAGCTGCATGGACCGGTTTTCCCGGTAATCCGTATTTGTG (site TTGGCTGCTCA)”, the “recombinant UMI read abundance (log10)” value was determined as 0.0755.

For the sequence “TTAGCTGCATGGACCGGTTTTCCCGGTAATCCGTATTTGTG (site TTTGCTGCTCA)”, the “recombinant UMI read abundance (log10)” value worked out at 0.00733.

Take “TTAGGTGCATGGACCGGTTTTCCCGGTAATCCGTATTTGGT (site TTAGGTGCTAC)”: the “recombinant UMI read abundance (log10)” value worked out at 1.17.

On to “TTAGGTGCATGGACCGGTTTTCCCGGTAATCCGTATTTGTG (site TTAGATGCTCA)”, for which the “recombinant UMI read abundance (log10)” value came out at 0.787.

On to “TTAGGTGCATGGACCGGTTTTCCCGGTAATCCGTATTTGTG (site TTAGCTGCTCA)”, for which the “recombinant UMI read abundance (log10)” value turned out to be 0.0453.

“TTAGGTGCATGGACCGGTTTTCCCGGTAATCCGTATTTGTG (site TTAGGTGCTCA)”: the “recombinant UMI read abundance (log10)” value amounted to 0.831.

Turning to “TTAGGTGCATGGACCGGTTTTCCCGGTAATCCGTATTTGTG (site TTAGTTGCTCA)”, the “recombinant UMI read abundance (log10)” value was 0.0384.

Take “TTAGTAACATGGACCGGTTTTCCCGGTAATCCGTATTTGAC (site CTAGTATCTGT)”: the “recombinant UMI read abundance (log10)” value stood at 1.07.

Regarding “TTAGTAACATGGACCGGTTTTCCCGGTAATCCGTATTTGAC (site TTAGTAACTGT)”, the “recombinant UMI read abundance (log10)” value is 2.16.

As to “TTAGTATCATGGACCGGTTTTCCCGGTAATCCGTATTTGCA (site ACAGTATCTTG)”, the “recombinant UMI read abundance (log10)” value was found to be 1.99.

As to “TTAGTATCATGGACCGGTTTTCCCGGTAATCCGTATTTGCA (site TTAGTATCTTG)”, the “recombinant UMI read abundance (log10)” value amounted to 1.42.

Turning to “TTAGTCTCATGGACCGGTTTTCCCGGTAATCCGTATTTGAT (site TTAGTCTCTAT)”, the “recombinant UMI read abundance (log10)” value turned out to be 2.82.

Consider “TTAGTTACATGGACCGGTTTTCCCGGTAATCCGTATTTGCC (site TTAGTTACTGG)”, for which the “recombinant UMI read abundance (log10)” value was 2.18.

For the sequence “TTATACTCATGGACCGGTTTTCCCGGTAATCCGTATTTGCA (site TAATACTCTTG)”, the “recombinant UMI read abundance (log10)” value worked out at 1.93.

With “TTATACTCATGGACCGGTTTTCCCGGTAATCCGTATTTGCA (site TCATACTCTTG)”, the “recombinant UMI read abundance (log10)” value was found to be 1.9.

On to “TTATACTCATGGACCGGTTTTCCCGGTAATCCGTATTTGCA (site TGATACTCTTG)”, for which the “recombinant UMI read abundance (log10)” value worked out at 2.05.

As for “TTATACTCATGGACCGGTTTTCCCGGTAATCCGTATTTGCA (site TTATACTCTTG)”, the “recombinant UMI read abundance (log10)” value was found to be 2.72.

Regarding “TTATCATCATGGACCGGTTTTCCCGGTAATCCGTATTTGAG (site TTATCATCTCT)”, the “recombinant UMI read abundance (log10)” value worked out at 0.385.

For “TTATGACCATGGACCGGTTTTCCCGGTAATCCGTATTTGAC (site TTATGACCTGT)”, the “recombinant UMI read abundance (log10)” value is 0.

For the sequence “TTATGCACATGGACCGGTTTTCCCGGTAATCCGTATTTGGC (site TTATGCACTGC)”, the “recombinant UMI read abundance (log10)” value came out at 1.93.

Turning to “TTATGTCCATGGACCGGTTTTCCCGGTAATCCGTATTTGTA (site TTATGTCCTTA)”, the “recombinant UMI read abundance (log10)” value stood at 0.134.

On to “TTATGTCCATGGACCGGTTTTCCCGGTAATCCGTATTTGTC (site TTATGTCCTGA)”, for which the “recombinant UMI read abundance (log10)” value worked out at 0.363.

For the sequence “TTCAAACCATGGACCGGTTTTCCCGGTAATCCGTATTTGCG (site TTCAAACCTCG)”, the “recombinant UMI read abundance (log10)” value came to 0.

Regarding “TTCAAGACATGGACCGGTTTTCCCGGTAATCCGTATTTGCC (site TTCAAGACTGG)”, the “recombinant UMI read abundance (log10)” value is 0.

Turning to “TTCACCGCATGGACCGGTTTTCCCGGTAATCCGTATTTGCG (site TACACCGCTCG)”, the “recombinant UMI read abundance (log10)” value was 0.00969.

Consider “TTCACCGCATGGACCGGTTTTCCCGGTAATCCGTATTTGCG (site TCCACCGCTCG)”, for which the “recombinant UMI read abundance (log10)” value stood at 0.017.
